Laboratory results taken from ChEMBL document CHEMBL4483862, “Open-source discovery of chemical leads for next-generation chemoprotective antimalarials” (2018).

Tested on: Plasmodium berghei
Assay: Luciferase/luciferin-expressing antifolate-resistant parasites were used to infect a culture of HepG2 cells that were pre-incubated with compounds. Infected hepatocytes emit light due to the luciferase reaction. Assay results are presented as the percent inhibition of light emission compared to control. […]
Type: functional
Settings: sporozoite; for IC90: read-out: LUCIFERASE INFECTION ASSAY - IC90

Structure (SMILES)	IC90 [µM]	further results
O=C(Nc1cccc(Cl)c1)Nc1csc([N+](=O)[O-])c1	9.45	IC50 (HEPG2TOX_HILL_SLOPE 11, HEPG2TOX_R_SQUARED 0.423, PBLUC_HILL_SLOPE 4.17, PBLUC_R_SQUARED 0.367, read-out: LUCIFERASE INFECTION ASSAY - IC50): 5.58 µM
Cc1[nH]c2ccccc2c1C1=NN=C(Nc2ccc(F)cc2)SC1	> 10	IC50 (HEPG2TOX_HILL_SLOPE 10.5, HEPG2TOX_R_SQUARED 0.592, PBLUC_HILL_SLOPE 2.25, PBLUC_R_SQUARED 0.706, read-out: LUCIFERASE INFECTION ASSAY - IC50): 5.54 µM
O=C(Cn1ncc(Br)c(Br)c1=O)C12CC3CC(CC(C3)C1)C2	> 10	IC50 (HEPG2TOX_HILL_SLOPE 11, HEPG2TOX_R_SQUARED 0.947, PBLUC_HILL_SLOPE 1.04, PBLUC_R_SQUARED 0.291, read-out: LUCIFERASE INFECTION ASSAY - IC50): 2.75 µM
O=C(Nc1cc(C(F)(F)F)cc(C(F)(F)F)c1)c1csc([N+](=O)[O-])c1	7.1	IC50 (HEPG2TOX_HILL_SLOPE 11, HEPG2TOX_R_SQUARED 0.957, PBLUC_HILL_SLOPE 1.57, PBLUC_R_SQUARED 0.511, read-out: LUCIFERASE INFECTION ASSAY - IC50): 1.75 µM
O=C(/C=C/c1ccc(-c2ccccc2Cl)s1)N1CCN(c2ncccn2)CC1	> 10	IC50 (HEPG2TOX_HILL_SLOPE 11.1, HEPG2TOX_R_SQUARED 0.736, PBLUC_HILL_SLOPE 11.3, PBLUC_R_SQUARED 0.239, read-out: LUCIFERASE INFECTION ASSAY - IC50): 9.23 µM
C/C(Cn1nnc(-c2ccc(C(F)(F)F)cc2)n1)=N\NC(N)=S	3.45	IC50 (HEPG2TOX_HILL_SLOPE 10.9, HEPG2TOX_R_SQUARED 0.527, PBLUC_HILL_SLOPE 12.4, PBLUC_R_SQUARED 0.37, read-out: LUCIFERASE INFECTION ASSAY - IC50): 2.89 µM
C/C(=N\NC(=O)Nc1ccc(Cl)cc1)c1ccc2c(c1)OCCO2	9.81	IC50 (HEPG2TOX_HILL_SLOPE 11.1, 2.08, HEPG2TOX_R_SQUARED 0.732, 0.913, PBLUC_HILL_SLOPE 3.29, PBLUC_R_SQUARED 0.645, read-out: LUCIFERASE INFECTION ASSAY - IC50): 5.03 µM
CC(C)(C)CC(C)(C)c1ccc(OCC(O)CNC2CCC(O)CC2)cc1 (centres undefined)	7.58	IC50 (HEPG2TOX_HILL_SLOPE 10.5, HEPG2TOX_R_SQUARED 0.116, PBLUC_HILL_SLOPE 3.56, PBLUC_R_SQUARED 0.606, read-out: LUCIFERASE INFECTION ASSAY - IC50): 4.09 µM
CS(=O)(=O)Nc1cccc(-c2cn3c(-c4ccc(Cl)cc4)cnc3cn2)c1	1.05	IC50 (HEPG2TOX_HILL_SLOPE 10.9, HEPG2TOX_R_SQUARED 0.801, PBLUC_HILL_SLOPE 12.2, PBLUC_R_SQUARED 0.805, read-out: LUCIFERASE INFECTION ASSAY - IC50): 0.873 µM
COc1ccc2nc(C(=O)NNC(=O)c3cc(C)oc3C)ccc2c1	> 10	IC50 (HEPG2TOX_HILL_SLOPE 10.5, HEPG2TOX_R_SQUARED 0.205, PBLUC_HILL_SLOPE 2.55, PBLUC_R_SQUARED 0.459, read-out: LUCIFERASE INFECTION ASSAY - IC50): 6.67 µM
O=C(/C=C/c1ccc2ccccc2n1)N1CCCC(c2nc3ccccc3[nH]2)C1 (centres undefined)	9.5	IC50 (HEPG2TOX_HILL_SLOPE 11.0, 10.5, HEPG2TOX_R_SQUARED 0.675, 0.360, PBLUC_HILL_SLOPE 2.71, 0.363, PBLUC_R_SQUARED 0.567, 0.526, read-out: LUCIFERASE INFECTION ASSAY - IC50): 2.81 µM
CCn1nc(C)c(Sc2nccn2C)c1C	> 14	IC50 (HEPG2TOX_HILL_SLOPE 10.5, HEPG2TOX_R_SQUARED 0.481, PBLUC_HILL_SLOPE 1.71, PBLUC_R_SQUARED 0.393, read-out: LUCIFERASE INFECTION ASSAY - IC50): 4.63 µM
Cc1ccccc1N1CCN(C(=O)c2ccc(Cl)c(S(=O)(=O)NCc3ccccc3)c2)CC1	> 10	IC50 (HEPG2TOX_HILL_SLOPE 11.1, HEPG2TOX_R_SQUARED 0.861, PBLUC_HILL_SLOPE 8.51, PBLUC_R_SQUARED 0.104, read-out: LUCIFERASE INFECTION ASSAY - IC50): 9.26 µM
O=C(Nc1cccc(C(F)(F)F)c1)Nc1ccc2nc(Cc3ccccc3)nn2c1	3.8	IC50 (HEPG2TOX_HILL_SLOPE 10.6, HEPG2TOX_R_SQUARED 0.963, PBLUC_HILL_SLOPE 15.5, PBLUC_R_SQUARED 0.643, read-out: LUCIFERASE INFECTION ASSAY - IC50): 3.3 µM
COc1ccccc1CN1C(=O)C=CC1=O	> 15.2	IC50 (HEPG2TOX_HILL_SLOPE 11.1, HEPG2TOX_R_SQUARED 0.957, PBLUC_HILL_SLOPE 12.9, PBLUC_R_SQUARED 0.465, read-out: LUCIFERASE INFECTION ASSAY - IC50): 13.8 µM
CC(C)N(C(=O)NC(=O)Nc1nc(-c2ccccc2)cs1)S(C)(=O)=O	> 10	IC50 (HEPG2TOX_HILL_SLOPE 10.9, HEPG2TOX_R_SQUARED 0.151, read-out: LUCIFERASE INFECTION ASSAY - IC50): > 10 µM

Structure (SMILES)	IC90 [µM]	further results
CCOc1cc(/C=C/C(=O)c2nc3ccccc3s2)cc(Cl)c1OCC(=O)N(C)C	4.79	IC50 (HEPG2TOX_HILL_SLOPE 10.9, HEPG2TOX_R_SQUARED 0.987, PBLUC_HILL_SLOPE 8.99, 3.54, PBLUC_R_SQUARED 0.449, 0.614, read-out: LUCIFERASE INFECTION ASSAY - IC50): 4.84 µM
O=C(Nc1ccc(SC(F)(F)F)cc1)N1CCN(c2nc3ccc(Cl)cc3s2)CC1	> 6.98	IC50 (HEPG2TOX_HILL_SLOPE 11, HEPG2TOX_R_SQUARED 0.778, PBLUC_HILL_SLOPE 2.23, PBLUC_R_SQUARED 0.377, read-out: LUCIFERASE INFECTION ASSAY - IC50): 3.77 µM
CNc1nc2cnc(Nc3cc(C(F)(F)F)ccc3F)cc2n1Cc1ccco1	> 10	IC50 (HEPG2TOX_HILL_SLOPE 10.6, HEPG2TOX_R_SQUARED 0.165, read-out: LUCIFERASE INFECTION ASSAY - IC50): > 10 µM
N#CCCNS(=O)(=O)c1ccc(C(=O)Nc2ccc(Nc3ccccc3)cc2)cc1	3.71	IC50 (HEPG2TOX_HILL_SLOPE 10.9, HEPG2TOX_R_SQUARED 0.158, PBLUC_HILL_SLOPE 11.4, PBLUC_R_SQUARED 0.555, read-out: LUCIFERASE INFECTION ASSAY - IC50): 3.06 µM
CC(C)(C(=O)NNC(=O)c1ccc2ccccc2n1)c1ccccc1	7.01	IC50 (HEPG2TOX_HILL_SLOPE 11.1, HEPG2TOX_R_SQUARED 0.756, PBLUC_HILL_SLOPE 1.23E+03, PBLUC_R_SQUARED 0.165, read-out: LUCIFERASE INFECTION ASSAY - IC50): 7 µM
O=S(=O)(NC1CCCCCCC1)c1ccc(S(=O)(=O)C(F)F)cc1	> 10	IC50 (HEPG2TOX_HILL_SLOPE 11.1, HEPG2TOX_R_SQUARED 0.22, read-out: LUCIFERASE INFECTION ASSAY - IC50): > 10 µM
O=[N+]([O-])c1c(N2CCOCC2)ccc2nsnc12	> 12.4	IC50 (HEPG2TOX_HILL_SLOPE 10.9, HEPG2TOX_R_SQUARED 0.296, read-out: LUCIFERASE INFECTION ASSAY - IC50): > 12.4 µM
COc1cc(C(=O)Nc2cccc(-c3nc4ccccc4[nH]3)c2)cc(Cl)c1OC	8.28	IC50 (HEPG2TOX_HILL_SLOPE 11, HEPG2TOX_R_SQUARED 0.706, PBLUC_HILL_SLOPE 2.74, PBLUC_R_SQUARED 0.344, read-out: LUCIFERASE INFECTION ASSAY - IC50): 3.71 µM
Fc1ccc(CNc2ncnc3ccc(Cl)cc23)cc1	9.51	IC50 (HEPG2TOX_HILL_SLOPE 10.6, HEPG2TOX_R_SQUARED 0.947, PBLUC_HILL_SLOPE 2.4, PBLUC_R_SQUARED 0.787, read-out: LUCIFERASE INFECTION ASSAY - IC50): 3.81 µM
COc1cccc(-c2nc(C(=O)Nc3ccc4nc(C(C)(C)C)[nH]c4c3)cs2)c1OC	9.22	IC50 (HEPG2TOX_HILL_SLOPE 10.6, HEPG2TOX_R_SQUARED 0.787, PBLUC_HILL_SLOPE 3.59, PBLUC_R_SQUARED 0.651, read-out: LUCIFERASE INFECTION ASSAY - IC50): 4.99 µM
N#CC(C#N)=NNc1ccc(OC(F)(F)F)cc1	> 13	IC50 (HEPG2TOX_HILL_SLOPE 11.1, HEPG2TOX_R_SQUARED 0.969, PBLUC_HILL_SLOPE 0.201, PBLUC_R_SQUARED 0.0877, read-out: LUCIFERASE INFECTION ASSAY - IC50): 0.245 µM
Cc1cc2nc(Nc3cccc(Cl)c3)c3ccccc3n2n1	> 10	IC50 (HEPG2TOX_HILL_SLOPE 10.5, HEPG2TOX_R_SQUARED 0.708, PBLUC_HILL_SLOPE 3.62, PBLUC_R_SQUARED 0.793, read-out: LUCIFERASE INFECTION ASSAY - IC50): 7.73 µM
COc1cc(-c2nc3ccc(NC(=O)Nc4ccc(OC(F)(F)F)cc4)cn3n2)cc(OC)c1OC	4.73	IC50 (HEPG2TOX_HILL_SLOPE 11.1, HEPG2TOX_R_SQUARED 0.679, PBLUC_HILL_SLOPE 2.84, PBLUC_R_SQUARED 0.644, read-out: LUCIFERASE INFECTION ASSAY - IC50): 2.18 µM
O=C(/C=C/c1cccc(NC(=O)C(F)(F)F)c1)c1cc2ccccc2o1	5.08	IC50 (HEPG2TOX_HILL_SLOPE 11, HEPG2TOX_R_SQUARED 0.396, PBLUC_HILL_SLOPE 8.92, PBLUC_R_SQUARED 0.395, read-out: LUCIFERASE INFECTION ASSAY - IC50): 3.97 µM
Cc1cc(C(C)(C)C)cc(C)c1CCNC(=O)C1CC1C (centres undefined)	9.15	IC50 (HEPG2TOX_HILL_SLOPE 11.1, HEPG2TOX_R_SQUARED 0.0296, PBLUC_HILL_SLOPE 3.7, PBLUC_R_SQUARED 0.553, read-out: LUCIFERASE INFECTION ASSAY - IC50): 5.05 µM
O=C(Nc1ccc(C(F)(F)F)cc1[N+](=O)[O-])c1ccccc1O	3.69	IC50 (HEPG2TOX_HILL_SLOPE 10.5, HEPG2TOX_R_SQUARED 0.302, PBLUC_HILL_SLOPE 15.7, PBLUC_R_SQUARED 0.498, read-out: LUCIFERASE INFECTION ASSAY - IC50): 3.21 µM
